Consider 25 compounds from patent US20260055079A1, “PHTHALAZINONE COMPOUNDS AS PARP7 INHIBITORS” (AZKARRA THERAPEUTICS, INC., priority 2022, published 2026).

The structures appear in SMILES notation. Read-outs that look alike come from different tables or passages of the source.

The target of one test is His-GST-PARP7 (Homo sapiens (Human), UniProt Q7Z3E1). Nature of the test: PARP7 biochemical assay. The settings on record: read-out: PARP7 IC50.
Test [1] concerns HARA (human lung squamous cell carcinoma) cells. Nature of the test: Cell proliferation assay (CellTiter-Glo), HARA. The format is cell-based. Particulars: Homo sapiens, 144 h; 6 days, CellTiter-Glo; read-out: HARA GI50. For orientation: ATP-based viability assays read luminescence as a measure of living cells.
Test [2] has as its system NCI-H1373 (human lung adenocarcinoma) cells. Nature of the test: Cell proliferation assay (CellTiter-Glo), NCI-H1373. The class given is cell-based. Particulars: Homo sapiens, NCI-H1373, 144 h, read-out: NCI-H1373 GI50.

Chain of His-GST-PARP7 (Q7Z3E1 whole entry): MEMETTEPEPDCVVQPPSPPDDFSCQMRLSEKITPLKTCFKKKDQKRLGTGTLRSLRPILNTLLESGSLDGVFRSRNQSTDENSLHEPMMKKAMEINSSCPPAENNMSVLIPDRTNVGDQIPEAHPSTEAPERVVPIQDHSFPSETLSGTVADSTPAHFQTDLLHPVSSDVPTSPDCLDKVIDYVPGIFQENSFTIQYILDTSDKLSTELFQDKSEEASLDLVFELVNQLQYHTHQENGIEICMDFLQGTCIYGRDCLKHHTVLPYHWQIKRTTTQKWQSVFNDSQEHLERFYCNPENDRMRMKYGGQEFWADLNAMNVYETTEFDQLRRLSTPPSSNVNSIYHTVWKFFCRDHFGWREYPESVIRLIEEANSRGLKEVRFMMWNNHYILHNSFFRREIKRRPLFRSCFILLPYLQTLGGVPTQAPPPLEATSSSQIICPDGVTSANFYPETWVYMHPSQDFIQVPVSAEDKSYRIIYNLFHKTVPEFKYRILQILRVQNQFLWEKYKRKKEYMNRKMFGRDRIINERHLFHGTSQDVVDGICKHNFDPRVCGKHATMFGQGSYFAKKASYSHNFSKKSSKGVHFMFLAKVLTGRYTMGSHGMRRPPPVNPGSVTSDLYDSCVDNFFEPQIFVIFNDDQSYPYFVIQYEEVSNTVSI

The term IC50 denotes the concentration that gives 50% inhibition. In general, GI50 refers to the concentration giving 50% growth inhibition. `CC#Cc1ccc2c(=O)[nH]nc(Cc3ccc(F)c(C(=O)N4CCN(c5ccc(C#N)cn5)CC(F)(F)C4)c3)c2c1` [Example 80, 6-(6,6-Difluoro-4-(2-fluoro-5-((4-oxo-7-(prop-1-ynyl)-3,4-dihydrophthalazin-1-yl)methyl)benzoyl)-1,4-diazepan-1-yl)nicotinonitrile]: the IC50 at His-GST-PARP7 is under 0.05 µM. Besides, the GI50 in test [1] is 1 to 5 µM; in test [2] (6 days, CellTiter-Glo), 0.1 to 1 µM.

Take `COc1cc(C#N)cnc1N1CCN(C(=O)c2cc(Cc3n[nH]c(=O)c4ccc(OC5CCC5)cc34)ccc2F)CC1` [Example 131, 6-(4-(5-((7-cyclobutoxy-4-oxo-3,4-dihydrophthalazin-1-yl)methyl)-2-fluorobenzoyl)piperazin-1-yl)-5-methoxynicotinonitrile]: the IC50 at His-GST-PARP7 was under 0.05 µM. Also, the GI50 in test [1] fell in the range of 1 to 5 µM; in test [2] (6 days, CellTiter-Glo), 0.1 to 1 µM.

`CC#Cc1ccc2c(=O)[nH]nc(Cc3ccc(F)c(C(=O)N4CCN(c5cc(C(=O)NC)ccn5)CC4)c3)c2c1` [Example 56, 2-(4-(2-Fluoro-5-((4-oxo-7-(prop-1-ynyl)-3,4-dihydrophthalazin-1-yl)methyl)benzoyl)piperazin-1-yl)-N-methylisonicotinamide]: the IC50 at His-GST-PARP7 was under 0.05 µM. In addition, the GI50 in test [1] is over 5 µM; in test [2] (6 days, CellTiter-Glo) it was 0.1 to 1 µM.

Consider `N#Cc1ccc(N2CCN(C(=O)c3cc(Cc4n[nH]c(=O)c5cccnc45)ccc3F)CC2)nc1` [Example 92, 6-(4-(2-Fluoro-5-((5-oxo-5,6-dihydropyrido[2,3-d]pyridazin-8-yl)methyl)benzoyl)piperazin-1-yl)nicotinonitrile], for which, on His-GST-PARP7, the IC50 is 0.05 to 0.1 µM. The GI50 is over 5 µM in test [1] and over 5 µM in test [2] (6 days, CellTiter-Glo).

Regarding `N#Cc1cnc(N2CCN(C(=O)c3cc(Cc4n[nH]c(=O)c5ccc(OC6CCC6)cc45)ccc3F)CC2)cc1C(F)(F)F` [Example 132, 6-(4-(5-((7-cyclobutoxy-4-oxo-3,4-dihydrophthalazin-1-yl)methyl)-2-fluorobenzoyl)piperazin-1-yl)-4-(trifluoromethyl)nicotinonitrile], the GI50 in test [1] is 1 to 5 µM; in test [2] (6 days, CellTiter-Glo) it was under 0.1 µM.

For `N#Cc1ccc(N2CCN(C(=O)c3cc(Cc4n[nH]c(=O)c5ccc(OCC(F)(F)F)cc45)ccc3F)CC2)nc1` [Example 9, 6-(4-(2-Fluoro-5-((4-oxo-7-(2,2,2-trifluoroethoxy)-3,4-dihydrophthalazin-1-yl)methyl)benzoyl)piperazin-1-yl)nicotinonitrile], the IC50 at His-GST-PARP7 was under 0.05 µM. Also, the 50% growth inhibitory concentration (GI50) in test [2] lay in the range of 0.1 to 1 µM.

Regarding `CC#Cc1ccc2c(=O)[nH]nc(Cc3ccc(F)c(C(=O)N(C)C4CN(c5ccc(C#N)cn5)C4)c3)c2c1` [Example 201, N-(1-(5-Cyanopyridin-2-yl)azetidin-3-yl)-2-fluoro-N-methyl-5-((4-oxo-7-(prop-1-yn-1-yl)-3,4-dihydrophthalazin-1-yl)methyl)benzamide], on His-GST-PARP7, the IC50 fell in the range of 0.5 to 2 µM. Besides, in test [2] (6 days, CellTiter-Glo), the 50% growth inhibitory concentration (GI50) fell in the range of 1 to 5 µM.

On to `O=C(c1cc(Cc2n[nH]c(=O)c3ccc(OC4CCC4)cc23)ccc1F)N1CCn2c(nnc2C2CC2)C1` [Example 146, 6-cyclobutoxy-4-(3-(3-cyclopropyl-5,6,7,8-tetrahydro-[1,2,4]triazolo[4,3-a]pyrazine-7-carbonyl)-4-fluorobenzyl)phthalazin-1(2H)-one], for which the IC50 at His-GST-PARP7 was under 0.05 µM. In addition, in test [2] (6 days, CellTiter-Glo), the GI50 is over 5 µM.

Take `N#Cc1ccc(N2CCN(C(=O)c3cc(Cc4n[nH]c(=O)c5ccc(NC6CCC6)cc45)ccc3F)CC2)nc1` [Example 29, 6-(4-(5-((7-(Cyclobutylamino)-4-oxo-3,4-dihydrophthalazin-1-yl)methyl)-2-fluorobenzoyl)piperazin-1-yl)nicotinonitrile]: the IC50 at His-GST-PARP7 is under 0.05 µM. The GI50 in test [2] (6 days, CellTiter-Glo) lay within 0.1 to 1 µM.

On to `N#Cc1ccc(N2CCN(C(=O)c3cc(Cc4n[nH]c(=O)c5ccc(NC6CC6)cc45)ccc3F)CC2)nc1` [Example 12, 6-(4-(5-((7-(Cyclopropylamino)-4-oxo-3,4-dihydrophthalazin-1-yl)methyl)-2-fluorobenzoyl)piperazin-1-yl)nicotinonitrile], for which the IC50 on His-GST-PARP7 is under 0.05 µM. Further, the GI50 in test [2] (6 days, CellTiter-Glo) lay in the range of 0.1 to 1 µM.

Take `C#CCNc1ccc2c(=O)[nH]nc(Cc3ccc(F)c(C(=O)N4CCn5c(nnc5C(F)(F)F)C4)c3)c2c1` [Example 185, 4-(4-Fluoro-3-(3-(trifluoromethyl)-5,6,7,8-tetrahydro-[1,2,4]triazolo[4,3-a]pyrazine-7-carbonyl)benzyl)-6-(prop-2-yn-1-ylamino)phthalazin-1(2H)-one]: the IC50 at His-GST-PARP7 was 0.1 to 0.5 µM. Besides, the GI50 in test [2] (6 days, CellTiter-Glo) is over 5 µM.

For the compound `COC1CN(c2ccc3c(=O)[nH]nc(Cc4ccc(F)c(C(=O)N5CCN(c6ccc(C#N)cn6)CC5)c4)c3c2)C1` [Example 11, 6-(4-(2-Fluoro-5-((7-(3-methoxyazetidin-1-yl)-4-oxo-3,4-dihydrophthalazin-1-yl)methyl)benzoyl)piperazin-1-yl)nicotinonitrile], the IC50 at His-GST-PARP7 is under 0.05 µM. For the same compound, in test [2], the GI50 was in the range of 0.1 to 1 µM.

Regarding `C#CCNc1ccc2c(=O)[nH]nc(Cc3ccc(F)c(C(=O)N4CCN(c5ccc(C#N)cn5)CC4)c3)c2c1` [Example 15, 6-(4-(2-Fluoro-5-((4-oxo-7-(prop-2-ynylamino)-3,4-dihydrophthalazin-1-yl)methyl)benzoyl)piperazin-1-yl)nicotinonitrile], the IC50 at His-GST-PARP7 is under 0.05 µM. Also, the GI50 in test [2] (6 days, CellTiter-Glo) was 1 to 5 µM.

Consider `CC#Cc1ccc2c(=O)[nH]nc(Cc3ccc(F)c(C(=O)N4C[C@H]5C[C@@H]4CN5c4ccc(C#N)cn4)c3)c2c1` [Example 66, 6-((1R,4R)-5-(2-Fluoro-5-((4-oxo-7-(prop-1-ynyl)-3,4-dihydrophthalazin-1-yl)methyl)benzoyl)-2,5-diazabicyclo[2.2.1]heptan-2-yl)nicotinonitrile], for which, at His-GST-PARP7, the IC50 is under 0.05 µM. For the same compound, the GI50 in test [2] (6 days, CellTiter-Glo) lay within 1 to 5 µM.

Consider `O=C(c1cc(Cc2n[nH]c(=O)c3ccc(OC4CCC4)cc23)ccc1F)N1CCN(C(=O)C2CC2)CC(F)(F)C1` [Example 127, 6-Cyclobutoxy-4-(3-(4-(cyclopropanecarbonyl)-6,6-difluoro-1,4-diazepane-1-carbonyl)-4-fluorobenzyl)phthalazin-1(2H)-one], for which, on His-GST-PARP7, the IC50 was under 0.05 µM. For the same compound, the GI50 in test [2] (6 days, CellTiter-Glo) lay in the range of 1 to 5 µM.

For the compound `CC#Cc1ccc2c(=O)[nH]nc(Cc3ccc(F)c(C(=O)N4CC(N(C)c5cc(C#N)ccn5)C4)c3)c2c1` [Example 69], the IC50 on His-GST-PARP7 is over 2 µM. Also, the GI50 in test [2] (6 days, CellTiter-Glo) is over 5 µM.

`CC#Cc1ccc2c(=O)[nH]nc(Cc3ccc(F)c(C(=O)N4CC(N(C)c5ccc(C#N)cn5)C4)c3)c2c1` [Example 70, 6-((1-(2-Fluoro-5-((4-oxo-7-(prop-1-yn-1-yl)-3,4-dihydrophthalazin-1-yl)methyl)benzoyl)azetidin-3-yl)(methyl)amino)nicotinonitrile 2,2,2-trifluoroacetate]: the IC50 on His-GST-PARP7 is over 2 µM. Moreover, the GI50 in test [2] (6 days, CellTiter-Glo) is over 5 µM.

In the case of `O=C(c1cc(Cc2n[nH]c(=O)c3ccc(OC4CCC4)cc23)ccc1F)N1CCN(c2ccc(O)cn2)CC1` [Example 140, 6-cyclobutoxy-4-(4-fluoro-3-(4-(5-hydroxypyridin-2-yl)piperazine-1-carbonyl)benzyl)phthalazin-1(2H)-one], the IC50 at His-GST-PARP7 was under 0.05 µM. Moreover, the GI50 in test [2] (6 days, CellTiter-Glo) lay within 1 to 5 µM.

Turning to `N#Cc1ccc(N2CCN(C(=O)c3cc(Cc4n[nH]c(=O)c5ccc(NCC(F)(F)F)cc45)ccc3F)CC2)nc1` [Example 22, 6-(4-(2-Fluoro-5-((4-oxo-7-((2,2,2-trifluoroethyl)amino)-3,4-dihydrophthalazin-1-yl)methyl)benzoyl)piperazin-1-yl)nicotinonitrile], the IC50 on His-GST-PARP7 was under 0.05 µM. The GI50 in test [2] (6 days, CellTiter-Glo) lay in the range of 1 to 5 µM.

With `N#Cc1ccc(N2CCN(C(=O)c3cccc(Cc4n[nH]c(=O)c5c(F)cccc45)c3)CC2)nc1` [Example 88, 6-(4-(3-((5-Fluoro-4-oxo-3,4-dihydrophthalazin-1-yl)methyl)benzoyl)piperazin-1-yl)nicotinonitrile], the IC50 on His-GST-PARP7 is under 0.05 µM. Besides, the GI50 in test [2] (6 days, CellTiter-Glo) was in the range of 0.1 to 1 µM.

With `CC#Cc1ccc2c(=O)[nH]nc(Cc3ccc(F)c(C(=O)NCc4nnc(C(F)(F)F)o4)c3)c2c1` [Example 199, 2-Fluoro-5-((4-oxo-7-(prop-1-ynyl)-3,4-dihydrophthalazin-1-yl)methyl)-N-((5-(trifluoromethyl)-1,3,4-oxadiazol-2-yl)methyl)benzamide], the half-maximal inhibitory concentration (IC50) on His-GST-PARP7 is over 2 µM. Moreover, the GI50 in test [2] (6 days, CellTiter-Glo) lay in the range of 1 to 5 µM.

Turning to `CC#Cc1ccc2c(=O)[nH]nc(Cc3ccc(F)c(C(=O)N4CC5(C4)CN(c4ccc(C#N)cn4)C5)c3)c2c1` [Example 60, 6-(6-(2-Fluoro-5-((4-oxo-7-(prop-1-yn-1-yl)-3,4-dihydrophthalazin-1-yl)methyl)benzoyl)-2,6-diazaspiro[3.3]heptan-2-yl)nicotinonitrile], the IC50 at His-GST-PARP7 was under 0.05 µM. For the same compound, the GI50 in test [2] (6 days, CellTiter-Glo) was 1 to 5 µM.

For `O=C(c1cc(Cc2n[nH]c(=O)c3ccc(OC4CCC4)cc23)ccc1Cl)N1CCN(c2ncc(C(F)(F)F)cn2)CC1` [Example 169, 4-(4-chloro-3-(4-(5-(trifluoromethyl)pyrimidin-2-yl)piperazine-1-carbonyl)benzyl)-6-cyclobutoxyphthalazin-1(2H)-one], the IC50 at His-GST-PARP7 was under 0.05 µM. Moreover, the GI50 in test [2] (6 days, CellTiter-Glo) is under 0.1 µM.

Take `N#Cc1ccc(N2CCN(C(=O)c3cc(Cc4n[nH]c(=O)c5ccc(OC(F)F)cc45)ccc3F)CC2)nc1` [Example 21, 6-(4-(5-((7-(Difluoromethoxy)-4-oxo-3,4-dihydrophthalazin-1-yl)methyl)-2-fluorobenzoyl)piperazin-1-yl)nicotinonitrile]: the IC50 at His-GST-PARP7 is under 0.05 µM. Moreover, the GI50 in test [2] was 0.1 to 1 µM.

As for `CC#Cc1ccc2c(=O)[nH]nc(Cc3ccc(F)c(C(=O)N4CCN(C(=O)CC#N)CC4)c3)c2c1` [Example 58, 3-(4-(2-Fluoro-5-((4-oxo-7-(prop-1-ynyl)-3,4-dihydrophthalazin-1-yl)methyl)benzoyl)piperazin-1-yl)-3-oxopropanenitrile], the IC50 on His-GST-PARP7 was under 0.05 µM. Moreover, the GI50 in test [2] (6 days, CellTiter-Glo) is over 5 µM.
